Assay results reported in the C3SDB collision cross section collection.
Values joined by “and” are separate entries in the source; they are usually repeats but may differ in a detail not shown here. Equal entries are not always repeated. Blank lines part the entries; values can stand above or below the compound they belong to.

Legend:
[1] = [M+H]+; instrument: TW
[2] = instrument: DT, single field, calibrated with Agilent tune mix (Agilent)
[3] = instrument: DT, stepped-field

- collision cross section (N2) ([2]; [M+HCOO]-): 300.8 Å²
- collision cross section (N2) ([3]; [M+Na]+): 308.2 Å²
Compound: CCCCCCCCCCCCCCCCCCCCCCCC(=O)N[C@@H](CO[C@@H]1O[C@H](CO)[C@@H](O)C(O)C1O)[C@H](O)CCCCCCCCCCCCCCC (stereo partly specified) [GlcCer(42:0)]

- collision cross section (N2) ([3]; [M+H]+): 238.6 Å²
Compound: CC(C)C[C@H](N)C(=O)N[C@@H](Cc1c[nH]c2ccccc12)C(=O)N[C@@H](CO)C(=O)N[C@@H](C)C(=O)N[C@@H](CCCCN)C(=O)O [LWSAK]

- collision cross section (N2) ([3]; [M+Na]+): 292.5 Å²
Compound: CC/C=C\C/C=C\C/C=C\C/C=C\C/C=C\C/C=C\CCC(=O)O[C@H](COC(=O)CCCCCCC/C=C\CCCC)COP(=O)([O-])OCC[N+](C)(C)C [PC(36:7)]

- collision cross section (N2) ([3]; [M+H]+): 225 Å²
Compound: N=C(N)NCCC[C@H](NC(=O)[C@H](CC(N)=O)NC(=O)[C@H](Cc1ccccc1)NC(=O)[C@@H](N)CC(N)=O)C(=O)O [NFNR]

- collision cross section (N2) ([3]; [M+Na]+): 309.5 Å²
Compound: CCCCC=CCC=CCC=CCC=CCC=CCC=CCC(=O)OC[C@H](COP(=O)(O)OC[C@H](N)C(=O)O)OC(=O)CC=CCC=CCC=CCC=CCC=CCC=CCCCC [PS(46:12)]

- collision cross section (N2) ([3]; [M+H]+): 237.3 Å²
Compound: N=C(N)NCCC[C@H](NC(=O)[C@H](CC(=O)O)NC(=O)[C@H](CO)NC(=O)[C@H](CO)NC(=O)[C@@H](N)Cc1ccccc1)C(=O)O [FSSDR]

- collision cross section (N2) ([3]; [M+H]+): 241.4 Å²
Compound: CCC(C)[C@H](NC(=O)[C@@H](N)CCC(N)=O)C(=O)N[C@@H](CO)C(=O)N[C@H](C(=O)N[C@@H](CCCNC(=N)N)C(=O)O)C(C)C (stereo partly specified) [QISVR]

- collision cross section (N2) ([3]; [M+K]+): 313.6 Å²
Compound: CCCCCC=CCC=CCC=CCC=CCC=CCC=CCC(=O)OC[C@H](COP(=O)(O)OC[C@H](N)C(=O)O)OC(=O)CC=CCC=CCC=CCC=CCC=CCC=CCCCCC [PS(48:12)]

- collision cross section (N2) ([3]; [M+H]+): 258.4 Å²
Compound: CC(C)[C@H](NC(=O)[C@@H](N)CO)C(=O)N[C@@H](Cc1ccc(O)cc1)C(=O)N[C@@H](CC(=O)O)C(=O)N[C@@H](CO)C(=O)N[C@@H](CCCNC(=N)N)C(=O)O [SVYDSR]

- collision cross section (N2) ([3]; [M+H]+): 285.7 Å²
Compound: CC(C)C[C@H](NC(=O)[C@H](CC(=O)O)NC(=O)[C@@H](NC(=O)[C@H](CC(C)C)NC(=O)[C@@H](N)C(C)C)C(C)C)C(=O)N[C@@H](CCC(=O)O)C(=O)N[C@@H](CCCNC(=N)N)C(=O)O [VLVDLER]

- collision cross section (N2) ([3]; [M+K]+): 291.8 Å²
Compound: CC/C=C\C/C=C\C/C=C\C/C=C\C/C=C\C/C=C\CCC(=O)O[C@H](COC(=O)CCCCCCCCCCCC)COP(=O)([O-])OCC[N+](C)(C)C [PC(35:6)]

- collision cross section (N2) ([3]; [M+Na]+): 295.6 Å²
Compound: CC/C=C\C/C=C\C/C=C\C/C=C\C/C=C\C/C=C\CCC(=O)OC[C@H](COP(=O)(O)OC[C@H](N)C(=O)O)OC(=O)CCCCCCC/C=C\CCCCCCCC [PS(40:7)]

- collision cross section (N2) ([2]; [M+H]+): 283.4 Å²
- collision cross section (N2) ([3]; [M+Na]+): 282.6 Å²
Compound: CCCCCCCCCCCCC=CC[C@@H](O)[C@H](CO[C@@H]1O[C@H](CO)[C@@H](O)C(O)C1O)NC(=O)CC=CCCCCCCCCCCCCCC (stereo partly specified) [GlcCer(36:2)]

- collision cross section (N2) ([3]; [M+H]+): 228.7 Å²
Compound: CCC(C)[C@H](NC(=O)[C@@H](NC(=O)[C@@H](N)CCSC)C(C)C)C(=O)N[C@@H](CCCNC(=N)N)C(=O)O (stereo partly specified) [MVIR]

- collision cross section (N2) ([3]; [M+H]+): 326.8 Å²
Compound: CCC(C)[C@H](NC(=O)[C@H](CC(C)C)NC(=O)[C@H](CC(C)C)NC(=O)[C@H](CCC(=O)O)NC(=O)[C@H](CC(N)=O)NC(=O)[C@H](C)N)C(=O)N[C@@H](CC(N)=O)C(=O)N[C@H](C(=O)N[C@@H](CCCCN)C(=O)O)C(C)C (stereo partly specified) [ANELLINVK]

- collision cross section (N2) ([3]; [M+K]+): 290.1 Å²
Compound: CCCCC/C=C\C/C=C\C/C=C\CCCCCCC(=O)O[C@H](COC(=O)CCCCCCCCCCCC)COP(=O)([O-])OCC[N+](C)(C)C [PC(33:3)]

- collision cross section (N2) ([2]; [M+H]+): 276.6 Å²
- collision cross section (N2) ([3]; [M+K]+): 283.6 Å²
- collision cross section (N2) ([3]; [M+Na]+): 282.9 Å²
Compound: CCCCCCCCCC/C=C\CCCCCCCCCC(=O)O[C@H](COC(=O)CCCCCCCCCCCC)COP(=O)(O)OCCN [PE(35:1)]

- collision cross section (N2) ([3]; [M+H]+): 215.4 Å²
Compound: CCC(C)C(NC(=O)C(N)Cc1c[nH]c2ccccc12)C(=O)NC(CCCN=C(N)N)C(=O)O (stereo unspecified) [WIR]

- collision cross section (N2) ([2]; [M+H]+): 284.2 Å²
- collision cross section (N2) ([3]; [M+K]+): 296.1 Å²
Compound: CCCC/C=C\C/C=C\CCCCCCCC(=O)O[C@H](COC(=O)CCCCCCC/C=C\CCCCCCCC)COP(=O)([O-])OCC[N+](C)(C)C [PC(35:3)]

- collision cross section (N2) ([3]; [M+H]+): 258.5 Å²
Compound: CCC(C)[C@H](N)C(=O)N[C@@H](Cc1c[nH]cn1)C(=O)N[C@@H](CCC(=O)O)C(=O)N[C@@H](Cc1ccc(O)cc1)C(=O)N[C@@H](CCCCN)C(=O)O (stereo partly specified) [IHEYK]

Continued, compound first:

Compound: C=C1C[C@@]23CC[C@H]4[C@@](C)(CCC[C@@]4(C)C(=O)O[C@@H]4O[C@H](CO)[C@@H](O)[C@H](O)[C@H]4O)[C@@H]2CC[C@]1(O[C@@H]1O[C@H](CO)[C@@H](O)[C@H](O[C@@H]2O[C@H](CO)[C@@H](O)[C@H](O)[C@H]2O)[C@H]1O[C@@H]1O[C@H](CO)[C@@H](O)[C@H](O)[C@H]1O)C3 [Rebaudioside A]
- collision cross section (N2) [1]: 299.48 Å²

Compound: O=C(O)\C2=C\N(c1cc(c(F)cc1C2=O)N3CCNCC3)CC [Norfloxacine]
- collision cross section (N2) [1]: 171 Å²

Compound: CN1C(/C(O)=N/c2ccccn2)=C(O)c2ccccc2S1(=O)=O [Piroxicam]
- collision cross section (N2) [1]: 170.9 Å²

Compound: C[C@H]1C[C@H]2[C@@H]3CCC4=CC(=O)C=C[C@]4(C)[C@@]3(Cl)[C@@H](O)C[C@]2(C)[C@@]1(O)C(=O)CO [Beclomethasone]
- collision cross section (N2) [1]: 189.2 Å²

Compound: C/N=C(/O)CSP(=O)(OC)OC [Omethoate]
- collision cross section (N2) [1]: 134.62 Å²

Compound: CN(C)CCCN1c2ccccc2Sc2ccc(Cl)cc21 [Chlorpromazine]
- collision cross section (N2) [1]: 169.1 Å²

Compound: CN1CCCN=C1/C=C/c1cccs1 [Pyrantel]
- collision cross section (N2) [1]: 143 Å²

Compound: Nc1ccc(S(=O)(=O)Nc2ccccn2)cc1 [Sulfapyridine]
- collision cross section (N2) [1]: 142.3 Å²

Compound: CN1CCN(c2c(F)cc3c(=O)c(C(=O)O)cn4c3c2OCN4C)CC1 [Marbofloxacin]
- collision cross section (N2) [1]: 179.6 Å²

Compound: CO[C@@H]1[C@@H](O[C@@H]2O[C@H](C)[C@@H](O[C@H]3C[C@@](C)(O)[C@@H](OC(=O)CC(C)C)[C@H](C)O3)[C@H](N(C)C)[C@H]2O)[C@@H](CC=O)C[C@@H](C)[C@@H](O)/C=C/C=C/C[C@@H](C)OC(=O)C[C@H]1OC(C)=O [Josamycin]
- collision cross section (N2) [1]: 306.8 Å²

Compound: CCOP(=O)(OCC)Oc1ccc([N+](=O)[O-])cc1 [Paraoxon-ethyl]
- collision cross section (N2) [1]: 156.76 Å²

Compound: CC(COc1ccc(Oc2ccccc2)cc1)Oc1ccccn1 (stereo unspecified) [Pyriproxifen]
- collision cross section (N2) [1]: 182.76 Å²

Compound: CN(C)[C@@H]1C(O)=C(C(=N)O)C(=O)[C@@]2(O)C(O)=C3C(=O)c4c(O)ccc(Cl)c4[C@@](C)(O)[C@H]3C[C@@H]12 [Chlortetracycline]
- collision cross section (N2) [1]: 203.9 Å²

Compound: CC/C(=N\OC/C=C/Cl)C1=C(O)CC(C2CCOCC2)CC1=O (stereo unspecified) [Tepraloxydim]
- collision cross section (N2) [1]: 184.74 Å²

Compound: CCCCCCCCCCCCC=CC[C@@H](O)[C@H](CO[C@@H]1O[C@H](CO)[C@@H](O)C(O)C1O)NC(=O)CC=CCCCCCCCCCCCCCCCCCCCC (stereo partly specified) [GlcCer(42:2)]
- collision cross section (N2) ([2]; [M+HCOO]-): 298.5 Å²
- collision cross section (N2) ([2]; [M+H]+): 300.9 Å²
- collision cross section (N2) ([2]; [M+Na]+): 300.4 Å²
- collision cross section (N2) ([3]; [M+Na]+): 305.2 Å²

Compound: CC/C=C\C/C=C\C/C=C\C/C=C\C/C=C\C/C=C\CCC(=O)OC[C@H](COP(=O)(O)OCCN)OC(=O)CC/C=C\C/C=C\C/C=C\C/C=C\C/C=C\C/C=C\CC [PE(44:12)]
- collision cross section (N2) ([3]; [M+Na]+): 299.7 Å²

Compound: CC(=O)N[C@H]1[C@H](O[C@H]2[C@@H](O)[C@@H](CO)O[C@@H](O[C@@H]([C@H](O)[C@@H](O)C=O)[C@H](O)CO)[C@@H]2O)O[C@H](CO)[C@@H](O[C@@H]2O[C@@H](C)[C@@H](O)[C@@H](O)[C@@H]2O)[C@@H]1O[C@@H]1O[C@H](CO)[C@H](O)[C@H](O)[C@H]1O [Lacto-N-Fucopentaose II]
- collision cross section (N2) ([3]; [M+K]+): 267.2 Å²
- collision cross section (N2) ([3]; [M+Na]+): 271.1 Å²
- collision cross section (N2) ([3]; [M+Rb]+): 278.4 Å²

Compound: CCCCCCCCCCCCCCCCCCCC(=O)O[C@H](COC(=O)CCCCCCCCCCCCCCCC)COP(=O)(O)OCCN [PE(37:0)]
- collision cross section (N2) ([3]; [M+K]+): 297.8 Å²

Compound: CC(C)C[C@H](NC(=O)[C@H](CC(=O)O)NC(=O)[C@@H](N)Cc1ccc(O)cc1)C(=O)N[C@@H](CC(=O)O)C(=O)N[C@@H](Cc1ccccc1)C(=O)N[C@@H](CCCCN)C(=O)O [YDLDFK]
- collision cross section (N2) ([3]; [M+H]+): 272.4 Å²

Compound: CCCCCCC[N+](CCCCCCC)(CCCCCCC)CCCCCCC [TAA7]
- collision cross section (N2) ([3]; [M]+): 236.4 Å²

Compound: OCC1OC(OC2C(CO)OC(OC3C(CO)OC(OC4C(CO)OC(OC5C(CO)OC(OC6C(CO)OC(OC7C(CO)OC(OC8C(CO)OC(OC9C(CO)OC(OC%10C(CO)OC(OC%11C(CO)OC(O)C(O)C%11O)C(O)C%10O)C(O)C9O)C(O)C8O)C(O)C7O)C(O)C6O)C(O)C5O)C(O)C4O)C(O)C3O)C(O)C2O)C(O)C(O)C1O (stereo unspecified) [(Hex)11]
- collision cross section (N2) ([3]; [M+H-H2O]+): 379.1 Å²
- collision cross section (N2) ([3]; [M+K]+): 364.8 Å² and 367.1 Å²
- collision cross section (N2) ([3]; [M+Li]+): 369.7 Å²
- collision cross section (N2) ([3]; [M+Na]+): 384.6 Å²
- collision cross section (N2) ([3]; [M+Rb]+): 363.1 Å² and 369.7 Å²

Compound: CCCCCCCCC/C=C\CCCCCCCC(=O)O[C@H](COC(=O)CCCCCCCCCCCCCCCCC)COP(=O)(O)OCCN [PE(37:1)]
- collision cross section (N2) ([3]; [M+K]+): 295 Å²
- collision cross section (N2) ([3]; [M+Na]+): 292.2 Å²

Compound: CCCCCCCCCCCCCCCCCC[N+](CCCCCCCCCCCCCCCCCC)(CCCCCCCCCCCCCCCCCC)CCCCCCCCCCCCCCCCCC [TAA18]
- collision cross section (N2) ([3]; [M]+): 379 Å²

Compound: OCC1OC(OC2C(CO)OC(OC3C(CO)OC(O)C(O)C3O)C(O)C2O)C(O)C(O)C1O (stereo unspecified) [(Hex)3]
- collision cross section (N2) ([3]; [M+Na-H2O]+): 204.9 Å²

Compound: CCCCC/C=C\C/C=C\CCCCCCCC(=O)O[C@H](COC(=O)CCCCCCCCCCCCCCCCCC)COP(=O)(O)OCCN [PE(37:2)]
- collision cross section (N2) ([3]; [M+K]+): 289.8 Å²
- collision cross section (N2) ([3]; [M+Na]+): 288.2 Å²
